Literature values in paper PMC7744997 (Clinical Infectious Diseases: An Official Publication of …, 2020).

System: RSV
Conditions: cited from earlier work

Structure (SMILES)	Outcome on viral load endpoints in clinical studies
Cc1cn2nc([C@@H]3CCCCN3C(=O)c3cc(Cl)ccc3NS(C)(=O)=O)cc2nc1N1CC[C@H](N)C1 [presatovir]	failure to meet viral load endpoints
Cc1ccc([C@]23Cn4cccc4C(=O)N2CCN3C(=O)c2conc2C)cn1 [BTA-C585]	failure to meet viral load endpoints
